Values after ≈ are worked out from the molar mass of the structure shown.
Legend:
Assay type in all cases: functional
Conditions in all cases: time 20-24 hrs
Staphylococcus aureus [1] = experiment: Antimicrobial activity against Staphylococcus aureus ATCC 25923 assessed as inhibition of visible growth measured after 20 to 24 hrs incubation by CLSI method
Staphylococcus aureus [2] = experiment: Antimicrobial activity against antibiotic-resistant Staphylococcus aureus ATCC BAA-2312 assessed as inhibition of visible growth measured after 20 to 24 hrs incubation by CLSI method
Staphylococcus aureus [3] = experiment: Antimicrobial activity against antibiotic-resistant Staphylococcus aureus ATCC 33591 assessed as inhibition of visible growth measured after 20 to 24 hrs incubation by CLSI method
Staphylococcus aureus [4] = experiment: Antimicrobial activity against antibiotic-resistant Staphylococcus aureus ATCC 33592 assessed as inhibition of visible growth measured after 20 to 24 hrs incubation by CLSI method
Staphylococcus aureus [5] = experiment: Antimicrobial activity against antibiotic-resistant Staphylococcus aureus ATCC 700699 assessed as inhibition of visible growth measured after 20 to 24 hrs incubation by CLSI method
[6] = test system: Staphylococcus epidermidis; experiment: Antimicrobial activity against antibiotic-resistant Staphylococcus epidermidis ATCC 700296 assessed as inhibition of visible growth measured after 20 to 24 hrs incubation by CLSI method
Enterococcus faecalis [7] = experiment: Antimicrobial activity against antibiotic-susceptible Enterococcus faecalis ATCC 29212 assessed as inhibition of visible growth measured after 20 to 24 hrs incubation by CLSI method
Enterococcus faecalis [8] = experiment: Antimicrobial activity against antibiotic-resistant Enterococcus faecalis ATCC 51299 assessed as inhibition of visible growth measured after 20 to 24 hrs incubation by CLSI method
Enterococcus faecium = experiment: Antimicrobial activity against antibiotic-resistant Enterococcus faecium ATCC 700221 assessed as inhibition of visible growth measured after 20 to 24 hrs incubation by CLSI method
Bacillus subtilis = experiment: Antimicrobial activity against antibiotic-resistant Bacillus subtilis ATCC 6623 assessed as inhibition of visible growth measured after 20 to 24 hrs incubation by CLSI method

CC(C)(C)c1ccc(NCc2cn(-c3ccc(C(=O)O)cc3)nc2-c2ccc(F)cc2)cc1
MIC (Staphylococcus aureus [1]): 4 µg/mL (≈ 9.02 µM) | MIC (Staphylococcus aureus [2]): 2 µg/mL (≈ 4.51 µM) | MIC (Staphylococcus aureus [3]): 2 µg/mL (≈ 4.51 µM) | MIC (Staphylococcus aureus [4]): 4 µg/mL (≈ 9.02 µM) | MIC (Staphylococcus aureus [5]): 4 µg/mL (≈ 9.02 µM) | MIC [6]: 8 µg/mL (≈ 18 µM) | MIC (Enterococcus faecalis [7]): 8 µg/mL (≈ 18 µM) | MIC (Enterococcus faecalis [8]): 8 µg/mL (≈ 18 µM) | MIC (Enterococcus faecium): 4 µg/mL (≈ 9.02 µM) | MIC (Bacillus subtilis): 2 µg/mL (≈ 4.51 µM)

O=C(O)c1ccc(-n2cc(CNc3cc(Cl)cc(C(F)(F)F)c3)c(-c3cccc(F)c3)n2)cc1
MIC (Staphylococcus aureus [1]): 2 µg/mL (≈ 4.08 µM) | MIC (Staphylococcus aureus [2]): 1 µg/mL (≈ 2.04 µM) | MIC (Staphylococcus aureus [3]): 1 µg/mL (≈ 2.04 µM) | MIC (Staphylococcus aureus [4]): 1 µg/mL (≈ 2.04 µM) | MIC (Staphylococcus aureus [5]): 2 µg/mL (≈ 4.08 µM) | MIC [6]: 4 µg/mL (≈ 8.17 µM) | MIC (Enterococcus faecalis [7]): 4 µg/mL (≈ 8.17 µM) | MIC (Enterococcus faecalis [8]): 2 µg/mL (≈ 4.08 µM) | MIC (Enterococcus faecium): 2 µg/mL (≈ 4.08 µM) | MIC (Bacillus subtilis): 0.5 µg/mL (≈ 1.02 µM)

NS(=O)(=O)c1ccc(NCc2cn(-c3ccc(C(=O)O)cc3)nc2-c2ccc(F)cc2)cc1
MIC (Staphylococcus aureus [1]): > 32 µg/mL | MIC (Staphylococcus aureus [2]): > 32 µg/mL | MIC (Staphylococcus aureus [3]): > 32 µg/mL | MIC (Staphylococcus aureus [4]): > 32 µg/mL | MIC (Staphylococcus aureus [5]): > 32 µg/mL | MIC [6]: 16 µg/mL (≈ 34.3 µM) | MIC (Enterococcus faecalis [7]): > 32 µg/mL | MIC (Enterococcus faecalis [8]): > 32 µg/mL | MIC (Enterococcus faecium): > 32 µg/mL | MIC (Bacillus subtilis): > 32 µg/mL

O=C(O)c1ccc(-n2cc(CNc3ccccc3)c(-c3ccc(F)cc3)n2)cc1
MIC (Staphylococcus aureus [1]): 32 µg/mL (≈ 82.6 µM) | MIC (Staphylococcus aureus [2]): 32 µg/mL (≈ 82.6 µM) | MIC (Staphylococcus aureus [3]): 32 µg/mL (≈ 82.6 µM) | MIC (Staphylococcus aureus [4]): 32 µg/mL (≈ 82.6 µM) | MIC (Staphylococcus aureus [5]): 32 µg/mL (≈ 82.6 µM) | MIC [6]: 32 µg/mL (≈ 82.6 µM) | MIC (Enterococcus faecalis [7]): > 32 µg/mL | MIC (Enterococcus faecalis [8]): > 32 µg/mL | MIC (Enterococcus faecium): > 32 µg/mL | MIC (Bacillus subtilis): 16 µg/mL (≈ 41.3 µM)

O=C(O)c1ccc(-n2cc(CNc3cc(Cl)c(F)cc3F)c(-c3ccc(F)c(F)c3)n2)cc1
MIC (Staphylococcus aureus [1]): > 32 µg/mL | MIC (Staphylococcus aureus [2]): > 32 µg/mL | MIC (Staphylococcus aureus [3]): > 32 µg/mL | MIC (Staphylococcus aureus [4]): > 32 µg/mL | MIC (Staphylococcus aureus [5]): > 32 µg/mL | MIC [6]: > 32 µg/mL | MIC (Enterococcus faecalis [7]): > 32 µg/mL | MIC (Enterococcus faecalis [8]): > 32 µg/mL | MIC (Enterococcus faecium): > 32 µg/mL | MIC (Bacillus subtilis): > 32 µg/mL

O=C(O)c1ccc(-n2cc(CNc3cccc(OC(F)(F)F)c3)c(-c3ccc(F)cc3)n2)cc1
MIC (Staphylococcus aureus [1]): 4 µg/mL (≈ 8.49 µM) | MIC (Staphylococcus aureus [2]): 4 µg/mL (≈ 8.49 µM) | MIC (Staphylococcus aureus [3]): 2 µg/mL (≈ 4.24 µM) | MIC (Staphylococcus aureus [4]): 8 µg/mL (≈ 17 µM) | MIC (Staphylococcus aureus [5]): 8 µg/mL (≈ 17 µM) | MIC [6]: 8 µg/mL (≈ 17 µM) | MIC (Enterococcus faecalis [7]): 16 µg/mL (≈ 33.9 µM) | MIC (Enterococcus faecalis [8]): 16 µg/mL (≈ 33.9 µM) | MIC (Enterococcus faecium): 16 µg/mL (≈ 33.9 µM) | MIC (Bacillus subtilis): 2 µg/mL (≈ 4.24 µM)

O=C(O)c1ccc(-n2cc(CNc3cccc(OC(F)(F)F)c3)c(-c3ccc(F)c(F)c3)n2)cc1
MIC (Staphylococcus aureus [1]): 4 µg/mL (≈ 8.17 µM) | MIC (Staphylococcus aureus [2]): 2 µg/mL (≈ 4.09 µM) | MIC (Staphylococcus aureus [3]): 1 µg/mL (≈ 2.04 µM) | MIC (Staphylococcus aureus [4]): 4 µg/mL (≈ 8.17 µM) | MIC (Staphylococcus aureus [5]): 4 µg/mL (≈ 8.17 µM) | MIC [6]: 8 µg/mL (≈ 16.3 µM) | MIC (Enterococcus faecalis [7]): 8 µg/mL (≈ 16.3 µM) | MIC (Enterococcus faecalis [8]): 8 µg/mL (≈ 16.3 µM) | MIC (Enterococcus faecium): 4 µg/mL (≈ 8.17 µM) | MIC (Bacillus subtilis): 1 µg/mL (≈ 2.04 µM)

O=C(O)c1ccc(-n2cc(CNc3ccc(Cl)c(Cl)c3)c(-c3cccc(F)c3)n2)cc1
MIC (Staphylococcus aureus [1]): 2 µg/mL (≈ 4.38 µM) | MIC (Staphylococcus aureus [2]): 2 µg/mL (≈ 4.38 µM) | MIC (Staphylococcus aureus [3]): 1 µg/mL (≈ 2.19 µM) | MIC (Staphylococcus aureus [4]): 4 µg/mL (≈ 8.77 µM) | MIC (Staphylococcus aureus [5]): 2 µg/mL (≈ 4.38 µM) | MIC [6]: 4 µg/mL (≈ 8.77 µM) | MIC (Enterococcus faecalis [7]): 8 µg/mL (≈ 17.5 µM) | MIC (Enterococcus faecalis [8]): 8 µg/mL (≈ 17.5 µM) | MIC (Enterococcus faecium): 4 µg/mL (≈ 8.77 µM) | MIC (Bacillus subtilis): 1 µg/mL (≈ 2.19 µM)

O=C(O)c1ccc(-n2cc(CNc3cccc(Cl)c3)c(-c3ccc(F)cc3)n2)cc1
MIC (Staphylococcus aureus [1]): 8 µg/mL (≈ 19 µM) | MIC (Staphylococcus aureus [2]): 4 µg/mL (≈ 9.48 µM) | MIC (Staphylococcus aureus [3]): 4 µg/mL (≈ 9.48 µM) | MIC (Staphylococcus aureus [4]): 16 µg/mL (≈ 37.9 µM) | MIC (Staphylococcus aureus [5]): 8 µg/mL (≈ 19 µM) | MIC [6]: 16 µg/mL (≈ 37.9 µM) | MIC (Enterococcus faecalis [7]): 32 µg/mL (≈ 75.9 µM) | MIC (Enterococcus faecalis [8]): 32 µg/mL (≈ 75.9 µM) | MIC (Enterococcus faecium): 32 µg/mL (≈ 75.9 µM) | MIC (Bacillus subtilis): 4 µg/mL (≈ 9.48 µM)

O=C(O)c1ccc(-n2cc(CNc3ccc(Cl)c(C(F)(F)F)c3)c(-c3ccc(F)c(F)c3)n2)cc1
MIC (Staphylococcus aureus [1]): 1 µg/mL (≈ 1.97 µM) | MIC (Staphylococcus aureus [2]): 1 µg/mL (≈ 1.97 µM) | MIC (Staphylococcus aureus [3]): 0.5 µg/mL (≈ 0.985 µM) | MIC (Staphylococcus aureus [4]): 2 µg/mL (≈ 3.94 µM) | MIC (Staphylococcus aureus [5]): 2 µg/mL (≈ 3.94 µM) | MIC [6]: 4 µg/mL (≈ 7.88 µM) | MIC (Enterococcus faecalis [7]): 4 µg/mL (≈ 7.88 µM) | MIC (Enterococcus faecalis [8]): 4 µg/mL (≈ 7.88 µM) | MIC (Enterococcus faecium): 2 µg/mL (≈ 3.94 µM) | MIC (Bacillus subtilis): 0.5 µg/mL (≈ 0.985 µM)

O=C(O)c1ccc(-n2cc(CNc3ccc(Br)c(Cl)c3)c(-c3cccc(F)c3)n2)cc1
MIC (Staphylococcus aureus [2]): 1 µg/mL (≈ 2 µM) | MIC (Staphylococcus aureus [3]): 1 µg/mL (≈ 2 µM) | MIC (Staphylococcus aureus [4]): 1 µg/mL (≈ 2 µM) | MIC (Staphylococcus aureus [5]): 2 µg/mL (≈ 3.99 µM) | MIC [6]: 4 µg/mL (≈ 7.99 µM) | MIC (Enterococcus faecalis [7]): 8 µg/mL (≈ 16 µM) | MIC (Enterococcus faecalis [8]): 4 µg/mL (≈ 7.99 µM) | MIC (Enterococcus faecium): 4 µg/mL (≈ 7.99 µM) | MIC (Bacillus subtilis): 1 µg/mL (≈ 2 µM)

Source: ChEMBL document CHEMBL5365500, “Development and Antibacterial Properties of 4-[4-(Anilinomethyl)-3-phenylpyrazol-1-yl]benzoic Acid Derivatives as Fatty Acid Biosynthesis Inhibitors” (J Med Chem, 2023)
